Reference: publication PMC7804859, “A metabolically stable apelin-17 analog decreases AVP-induced antidiuresis and improves hyponatremia” (Nature Communications, 2021)
Where “and” joins values, the source holds several entries; their conditions need not be identical. Identical values can stand only once.

How the values were obtained:
human V2-R = target: T1, human V2-R (Homo sapiens, UniProt P30518); experiment: cAMP production in HEK-293 T cells expressing the human V2-R (HTRF); type: cell-based; conditions: HEK-293 T cells, human V2-R
T1 construct: host or cells: HEK-293T cells, transient transfection
T1 sequence (P30518 whole entry): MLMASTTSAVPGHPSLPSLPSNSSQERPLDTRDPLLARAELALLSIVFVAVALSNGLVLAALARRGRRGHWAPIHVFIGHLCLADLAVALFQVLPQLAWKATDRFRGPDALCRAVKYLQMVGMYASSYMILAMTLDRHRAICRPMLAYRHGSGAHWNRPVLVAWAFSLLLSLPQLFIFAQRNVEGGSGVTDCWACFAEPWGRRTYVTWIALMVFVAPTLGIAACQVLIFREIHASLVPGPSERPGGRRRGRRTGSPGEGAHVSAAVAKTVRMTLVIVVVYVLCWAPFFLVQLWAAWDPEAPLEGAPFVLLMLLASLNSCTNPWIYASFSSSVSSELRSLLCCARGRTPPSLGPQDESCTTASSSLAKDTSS
Method: 152 Supplementary Methods
154 We quantified cAMP production with the cAMP dynamic 2 assay kit (Cisbio Bioassays,
155 Codolet, France), which is based on homogeneous time-resolved fluorescence (HTRF)
156 technology, as previously described 1. […]
For cells expressing the V2-R, HEK-
160 293T cells were transiently transfected with the human V2-R (cDNA Resource Center), after
161 48h, 4000 cells/well were added to white 384-well optiplates and stimulated either with 5
Cells were then lysed, and
165 cAMP levels were determined in accordance with the kit manufacturer’s instructions.
166 Stimulation was performed in stimulation buffer-IBMX (SBI) (Hank’s balanced salt solution
167 (HBSS-Life Technology), 5 mmol/l Hepes, 0.1% BSA stabilizer (Perkin Elmer), 1 mmol/l
168 isobutylmethylxanthine (IBMX, Sigma Aldrich, pH 7.4)). […]

in vivo = conditions: mice, 30 min after s.c. 900 nmol/kg
Method: (§1) 187 Apelin radioimmunoassay
188 Plasma samples (0.5 ml) were acidified with 0.175 ml of 3 mol/l HCl and stored at -80°C
189 until use for apelin RIA. Before thawing the sample on ice, 0.05% BSA was added, and the
190 samples were centrifuged at 20000 x g at 4°C for 10 min. The supernatants were collected and
191 the pH was adjusted to 6.5 with 10 mol/l NaOH and 2 mol/l Tris-HCl buffer (pH 7.4). Apelin
192 was extracted from plasma by mixing the supernatant with 0.3 ml of 0.1% BSA in H2O and 1
193 ml of 1% trifluoroacetic acid (TFA) - 0.1% BSA, and running the mixture on a Sep-Pak C18
194 cartridge (Waters) previously washed with 2 ml 100% acetonitrile and equilibrated with 5 ml
195 1% TFA - 0.1% BSA. The columns then were washed with 3 ml 1% TFA - 0.1% BSA and
196 apelin was eluted with 1.5 ml 100% acetonitrile. […]
208 Plasma or brain apelin levels w ere deter mined by RIA. Samples (0.1ml) w ere mixed with 125I-
211 dilution: 1/4500) to give a total volume of 0.2 ml and were incubated at 4°C overnight. We
(§2) 212 used this radioligand instead of [Glp65, Nle75, Tyr77] [125I]-apelin13 since the substitution of
(§3) 214 derivatives as described previously by 3,4.
215 We then added 0.5 ml of Amerlex (Amersham RPN 510), and the resulting mixture was
216 incubated for 10 min at room temperature. The tubes were centrifuged at 2600 x g at 4°C for
217 20 min. The supernatant was removed and the radioactivity of the precipitates was measured. […]

[1] = Brain apelin-immunoreactive levels in rats (RIA); type: in vivo, rat
Method: as §1
(§4) 189 until use for apelin RIA.
(§5) The supernatants were collected and
(§6) The samples were dried and dissolved in
(§7) 201 centrifuged (17000 x g, 4°C, 20 min). The supernatant (4 ml) was collected, and mixed with
(§8) The columns were then treated as described in
(§9) Samples (0.1ml) w ere mixed with 125I-
as §2, §3
(§10) 216 incubated for 10 min at room temperature.

[2] = Brain apelin-immunoreactive levels in mice (RIA); type: in vivo, mouse
Method: Then cells were treated with 10
Results are expressed in femtomoles of cAMP produced
as §1, §4, §5, §6, §7, §8, §9, §2, §3, §10
(§11) This antiserum identified the apelin present in the
Most of the apelin in human plasma was […]

control rats = experiment: Plasma AVP and apelin-IR levels in control rats (RIA); type: in vivo, rat; parameters: Apelin / AVP: unit not given here
Method: as §1, §4, §5, §6, §7, §8, §9, §2, §3, §10, §11
Most of the apelin in human plasma was
252 TechMedILL platfor m (Illkirch) reviewed and approved by the agriculture ministry regulating
256 Male Sprague-Dawley rats were killed by decapitation, and trunk blood was collected on ice
257 (into 50 µl of 0.3M EDTA (pH 7.4) per 1 ml of blood). Samples were centrifuged (2,600 x g,
258 4°C, 20 min), and the resulting plasma was split into 500 µl aliquots, to which we added 168
259 µl of 3N HCl before storage at -80°C. The AVP RIA was performed as previously described
260 5, using a specific AVP-[Arg8] antibody (final dilution, 1/4.5) and [125I]-(Tyr2Arg8)-AVP
261 (2200 Ci/mmol, Perkin-Elmer, Billerica, MA; 15000 dpm) as a tracer. […]

[3] = system: kidneys of normonatremic Sprague-Dawley rats; experiment: Kidney histology after 4 days of s.c. administration in rats; type: in vivo, rat; parameters: Tubular injury score: scale not given here
Method: 278 Kidneys were fixed in paraformaldehyde 4% overnight and processed for paraffin embedding.
279 Sections of 4 μm thickness were made and stained with the periodic acid-Schiff (PAS)
280 reagent and counterstained with hematoxylin. Histological analyzes were performed by a
281 trained nephrologist (AF), blinded of the treatment group. Tubular injury score was scored
283 vacuolization, epithelial cell shedding, and denuded tubular basement membrane, as follows:
285 calculated from twenty viewing fields selected randomly from the outer medulla and
286 corticomedullary junction and were examined at ×400 magnification. […]

[4] = system: hyponatremic rats (AVP 30 ng/h); experiment: Effects of LIT01-196 and tolvaptan in rat model of AVP-induced hyponatremia; type: in vivo
Method: Meloxicam was administered postoperatively for analgesia. Animals were then individually housed in metabolic cages (Techniplast), and given a semi-liquid diet consisting of 25 ml Gel-Diet Breeding-10 (SAFE, Augy, France) mixed with 25 ml tap water per day, with water available ad libitum. Animal weight, water, and food consumption were measured daily. Urine was collected daily, urinary electrolytes (Na^+, K^+, Cl^−) were determined with an ISE 3000 (Caretium Medical Instruments, Shenzhen, China) and urinary osmolality was measured with a Cryobasic 1 osmometer (Astori Tecnica, Poncarale, Italy). Blood samples were collected on ice, before implantation of the osmotic minipump, and before drug administration, under isoflurane anesthesia, from the tail vein (4 µl of lithium heparinate (1600 IU/ml) for 400 µl of blood). The blood samples were immediately centrifuged (4 °C, 2600 × g, 20 min), and plasma electrolyte (Na^+, K^+, Cl^−) levels were quantified with an ISE 3000. On the last day of the experiment, blood was also collected on ice by intracardiac puncture. This blood sample was collected into lithium heparinate under isoflurane anesthesia; plasma electrolyte levels were determined as described above and the animals were immediately killed by carbon monoxide inhalation.

SMILES: CSCC[C@H](NC(=O)[C@@H]1CCCN1C(=O)CNC(=O)[C@H](CCCCN)NC(=O)[C@H](Cc1c[nH]cn1)NC(=O)[C@H](CO)NC(=O)[C@H](CC(C)C)NC(=O)[C@H](CCCNC(=N)N)NC(=O)[C@@H]1CCCN1C(=O)[C@H](CCCNC(=N)N)NC(=O)[C@H](CCC(N)=O)NC(=O)[C@H](CCCNC(=N)N)NC(=O)[C@H](CCCNC(=N)N)NC(=O)[C@H](Cc1ccccc1)NC(=O)[C@H](CCCCN)NC(=O)CCC(F)(F)C(F)(F)C(F)(F)C(F)(F)C(F)(F)C(F)(F)C(F)(F)C(F)(F)F)C(=O)N1CCC[C@H]1C(=O)N[C@@H](Cc1ccccc1)C(=O)O [LIT01-196]
- effect on cAMP production induced by 1 µmol/l AVP (human V2-R; 1 µmol/l compound, 30 min 37 °C): did not modify
- effect on basal cAMP production (human V2-R; compound alone at 1 µmol/l): did not modify
- plasma apelin-IR levels, times basal levels (in vivo): 9.7 times
- plasma apelin-IR levels (in vivo; basal 1.3 ± 0.073, n = 5): 12.4 ± 2.5 pmol/mL
- crossing of the blood-brain barrier ([1]; rats and mice, 30 min after s.c. 900 nmol/kg): does not cross the BBB and does not enter the brain
- Brain apelin ([1]; rats, 30 min after 900 nmol/kg SC, single animals): 1.581 and 0.931 and 1.563 and 1.024 and 1.473
- apelin-IR levels in the brain ([1]; rats, 30 min after s.c. 900 nmol/kg, saline 1.2 ± 0.15, n = 5): 1.3 ± 0.14 pmol/brain
- apelin.brain ([2]; LIT01-196 900 nmol/kg, individual animals (Fig. S2C source data)): 0.257 and 0.271 and 0.513 and 0.58
- apelin-IR levels in the brain ([2]; mice, 30 min after s.c. 900 nmol/kg, saline 0.391 ± 0.045, n = 5): 0.440 ± 0.073 pmol/brain
- plasma apelin-IR levels, higher than in control rats (control rats; 3 h after 900 nmol/kg s.c.): 185%
- plasma apelin/AVP ratio, higher than in control rats (control rats; 3 h after 900 nmol/kg s.c.): 105%
- plasma AVP levels, higher than in animals receiving saline (control rats; 3 h after s.c., tolvaptan 6700 nmol/kg, LIT01-196 900 nmol/kg): 37%
- AVP (control rats; plasma AVP, LIT01-196 900 nmol/kg SC, individual animals (Fig. S4F source data)): 22.8083 and 24.884 and 19.0278 and 19.6598 and 20.1271 and 24.6505 and 19.9264
- Apelin (control rats; plasma apelin-IR, LIT01-196 900 nmol/kg SC, individual animals (Fig. S4E source data)): 1622 and 1536 and 1658 and 938 and 943 and 1033 and 1679
- apelinAVPratio (control rats; plasma apelin/AVP ratio, LIT01-196 900 nmol/kg SC, individual animals (Fig. S4G source data)): 71.1145 and 61.7264 and 87.1356 and 47.7116 and 46.8522 and 41.9059 and 84.2603
- Tubular injury score ([3]; 900 nmol/kg SC, individual animals (Fig. S5C source data)): 0.105 and 0.1 and 0.05 and 0.15 and 0
- Glomerular injury score ([3]; 900 nmol/kg SC, individual animals (Fig. S5D source data)): 0.09091 and 0.1053 and 0.1429 and 0.04762 and 0.05
- histological analysis of the kidneys ([3]; 900 nmol/kg s.c. for 4 consecutive days, rats): did not reveal any abnormality
- increase in urine output 24 h after s.c. administration ([4]; 180 nmol/kg s.c., rats receiving 30 ng/h AVP): 1.5 ± 2.0 ml/24 h/100 g
- urine osmolality, lower than AVP + saline group ([4]; 900 nmol/kg s.c. on days 0 and 1): 58%
- urine output, higher than AVP + saline group ([4]; 900 nmol/kg s.c. on days 0 and 1, average days 1 to 2, n = 9): 185%
- plasma sodium concentration on day 2 ([4]; 900 nmol/kg s.c. on days 0 and 1, saline 100 ± 2): 110 ± 5 mmol/L
- plasma sodium concentration on day 1 ([4]; 900 nmol/kg s.c., 24 h after first administration, saline 100 ± 2): 109 ± 5 mmol/L
- body weight change from baseline versus saline ([4]; 900 nmol/kg s.c., AVP-treated animals): similar
- water consumption (including water in diet), higher than AVP + saline group ([4]; 900 nmol/kg s.c., average days 1 to 2): 177%
- food consumption ([4]; 900 nmol/kg s.c., hyponatremic rats): significant increase
- increase in urine output 24 h after s.c. administration ([4]; 900 nmol/kg s.c., rats receiving 30 ng/h AVP and liquid diet): 11.7 ± 2.3 ml/24 h/100 g
- increase in urine output 24 h after s.c. administration ([4]; 2400 nmol/kg s.c., rats receiving 30 ng/h AVP): 9.2 ± 4.1 ml/24 h/100 g
